In patent publication US20130280270A1, “METHODS OF TREATING LUNG DISEASE AND OTHER INFLAMMATORY DISEASES” (Duke University, priority 2009, published 2013):
Read-outs that look alike come from different tables or passages of the source.

Experiments:
ozone-induced AHR = experiment: Ozone-induced AHR mouse model (asthma precipitated by air pollution); type: in vivo
From the text: (§1) We have carried out experiments with GRP blockade given as an intraperitoneal (IP) injection to prevent and/or treat AHR in several different mouse models of airways hyperreactivity (AHR) and/or inflammation: ozone-induced AHR as a model for asthma precipitated by air pollution, ovalbumin (OVA)-induced AHR as a model of allergic airways inflammation, and endotoxin (lipopolysaccharide, LPS)-induced AHR as a first step towards assessing infectious causes of asthma. These experiments used the small molecule GRP inhibitor, 77427, or a monoclonal anti-GRP blocking antibody, 2A 11. […] In the near future, we hope to test GRP blockade in additional mouse models of asthma, including: Mycoplasma infection, respiratory syncytial virus (RSV) infection, Aspergillus infection, and house dust mite exposure.
(§2) In contrast, mice were treated with dexamethasone (Dex), the standard of care for asthma, before ozone exposure.

GRP [1] = target: T1, GRP (Homo sapiens, UniProt P07492); conditions: cited from earlier work
T1 sequence (P07492 24-50 limits assumed): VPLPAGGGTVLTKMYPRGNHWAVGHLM

[2] = test system: ovalbumin (OVA)-induced AHR; experiment: Ovalbumin (OVA)-induced AHR mouse model (allergic airways inflammation); type: in vivo
From the text: as §1, §2

cytokines = experiment: Cytokine levels in ozone and ovalbumin in vivo mouse models of asthma
From the text: We have carried out experiments with GRP blockade given as an intraperitoneal (IP) injection to prevent and/or treat AHR in several different mouse models of airways hyperreactivity (AHR) and/or inflammation: ozone-induced AHR as a model for asthma precipitated by air pollution, ovalbumin (OVA)-induced AHR as a model of allergic airways inflammation, and endotoxin (lipopolysaccharide, LPS)-induced AHR as a first step towards assessing infectious causes of asthma. […] The invention would extend to any compound able to block GRP signaling by either binding to GRP itself or to the GRP receptor, which are part of the same signal transduction cascade. In the near future, we hope to test GRP blockade in additional mouse models of asthma, including: Mycoplasma infection, respiratory syncytial virus (RSV) infection, Aspergillus infection, and house dust mite exposure.

[3] = test system: endothelial cell tube formation; conditions: Matrigel support matrix; cited from earlier work
[4] = F. Cuttitta, unpublished data; cited from earlier work
[5] = test system: chronic radiation pneumonitis; experiment: Chronic radiation pneumonitis in mice after 15 Gy thoracic radiation; type: in vivo; conditions: 500 nM 77427 twice a week IP following 15 Gy thoracic radiation
Method: We can also block chronic radiation pneumonitis in mice given 500 nM 77427 twice a week IP following 15 Gy thoracic radiation.

GRP-induced angiogenesis = conditions: in vitro and in vivo; cited from earlier work
neovascularization = conditions: on a molar basis (≈500 nM), compared with MoAb-2A11; cited from earlier work
GRP [6] = target: T1, GRP; conditions: prevention of antibody-ligand interaction; blocking GRP-induced IP3 production and Ca2+ flux; cited from earlier work
GRP receptor = conditions: lung slices from one non-human primate, 2 slices MCh + antagonist; morphological assessment; cited from earlier work

C[C@@H]1C[C@H]2[C@@H]3CCC4=CC(=O)C=C[C@]4(C)[C@@]3(F)[C@@H](O)C[C@]2(C)[C@@]1(O)C(=O)CO [Dex, dexamethasone]
number of cytokines with significantly increased levels (ozone-induced AHR; treatment before ozone, IL-6, IL-12 (p40), TNFα): 3

Nc1nc(Cl)cc(NCCO)n1 [compound 77427]
blocks % of GRP (GRP [1]; 5 nM 77427): 50% | blocks % of GRP (GRP [1]; 50 nM 77427): 70% | blocks % of GRP (GRP [1]; 500 nM 77427): 95% | airway hyperreactivity (AHR) [2]: abrogates | airways inflammation [2]: abrogates | Interleukin-2 (IL-2) (cytokines; FIG. 2A): suppression | TNF-alpha (cytokines; FIG. 2C): suppression | GM-CSF (cytokines; FIG. 2D): suppression | IL-4 (cytokines; FIG. 2E): suppression | IL-5 (cytokines; FIG. 2F): suppression | IL-13 (cytokines; FIG. 2G): suppression | IL-6 (cytokines; FIG. 2H): suppression | IL-17 (cytokines; FIG. 2I): suppression | MCP-1 (cytokines; FIG. 2J): suppression | KC (cytokines; FIG. 2K): suppression | VEGF (cytokines; FIG. 2L): suppression | cytokines tested whose increased levels are significantly suppressed (P<0.0001) or abrogated (cytokines; ozone and ovalbumin models, cytokines represent at least 5 inflammatory cell types): 21 of 21 | blocking of GRP mediated endothelial cell tube formation [3]: effective blocker | half-life [4]: ~240 h | chronic radiation pneumonitis [5]: block | inhibition of GRP-induced angiogenesis (GRP-induced angiogenesis): potent inhibitor | suppressive response in stopping neovascularization (neovascularization): equivalent suppressive response as MoAb-2A11 | mimetic to MoAb-2A11 / antagonist to GRP in screen (GRP [6]): ideal mimetic to MoAb-2A11 | airway hyperreactivity (AHR) (ozone-induced AHR; ozone model): abrogates | airways inflammation (ozone-induced AHR; ozone model): abrogates

[Leu^13-(ψ-CH2NH)-Leu^14]-bombesin
MCh-induced reduction of internal airway diameter (bronchoconstriction) of bronchi (GRP receptor): slightly reduced
